# The supplement of paper PMC4862054
# Assays:
# Experiment in all cases: normalised response (% of control), CellTiter-Glo; higher = more viable cells (100 = DMSO, 0 = benzethonium chloride kill control)
# Details in all cases: incubation time: 72 h
# MDA-MB-468 = system: MDA-MB-468
# Summary of the method: (§1)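 Normalised signals at single concentrations make up the values. They come from breast cancer cell lines seeded (20 µl suspension) into 384-well plates with compound at 5 concentrations in 10-fold steps over a compound-specific 10,000-fold range, incubated 72 h, and read for CellTox Green fluorescence then CellTiter-Glo luminescence. Each plate was normalised to 0.1 % DMSO (100) and a positive kill control (0).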
# HCC1143 = system: HCC1143
# Summary of the method: as §1
# MFM-223 = system: MFM-223
# Summary of the method: as §1
# CAL-51 = system: CAL-51
# Summary of the method: as §1
# BT-474 = system: BT-474
# Summary of the method: as §1
# MCF-10A = system: MCF-10A
# Summary of the method: as §1
# SK-BR-3 = system: SK-BR-3
# Summary of the method: as §1
# CAL-148 = system: CAL-148
# Summary of the method: as §1
# CAL-120 = system: CAL-120
# Summary of the method: as §1
# HCC1599 = system: HCC1599
# Summary of the method: as §1
# BT-549 = system: BT-549
# Summary of the method: as §1
# CAL-85-1 = system: CAL-85-1
# Summary of the method: as §1
# DU-4475 = system: DU-4475
# Summary of the method: as §1
# HDQ-P1 = system: HDQ-P1
# Summary of the method: as §1
# MDA-MB-436 = system: MDA-MB-436
# Summary of the method: as §1
# HCC1937 = system: HCC1937
# Summary of the method: as §1
# Hs578T = system: Hs578T
# Summary of the method: as §1
# MDA-MB-453 = system: MDA-MB-453
# Summary of the method: as §1
# MDA-MB-231 = system: MDA-MB-231
# Summary of the method: as §1
Structure (SMILES),normalised response (MDA-MB-468),normalised response (HCC1143),normalised response (MFM-223),normalised response (CAL-51),normalised response (BT-474),normalised response (MCF-10A),normalised response (SK-BR-3),normalised response (CAL-148),normalised response (CAL-120),normalised response (HCC1599),normalised response (BT-549),normalised response (CAL-85-1),normalised response (DU-4475),normalised response (HDQ-P1),normalised response (MDA-MB-436),normalised response (HCC1937),normalised response (Hs578T),normalised response (MDA-MB-453),normalised response (MDA-MB-231)
O=C(Cc1ccc(-c2ccc(OCCN3CCOCC3)cc2)cn1)NCc1ccccc1 [KX2-391] (10 nM),94.6%,104%,106%,73.2%,103%,107%,87.6%,112%,101%,100%,102%,97.3%,104%,98%,98%,98.4%,103%,101%,100%
N#Cc1ccc(C(c2ccc(C#N)cc2)n2cncn2)cc1 [Letrozole] (1 nM),104%,97.5%,98.8%,121%,99.8%,110%,106%,92%,95.7%,122%,103%,100%,97.8%,94.1%,104%,89.2%,105%,113%,98.2%
CCN(CC)CCCC(C)Nc1c2ccc(Cl)cc2nc2ccc(OC)cc12 (stereo unspecified) [Mepacrine] (5 nM),100%,97.5%,97.2%,97.8%,96.1%,107%,104%,94.5%,107%,95.6%,104%,93.8%,96.2%,105%,111%,102%,100%,96.9%,99.8%
CCN(CC)CCCC(C)Nc1c2ccc(Cl)cc2nc2ccc(OC)cc12 (stereo unspecified) [Mepacrine] (50 nM),103%,98%,98.7%,120%,102%,92.9%,95.3%,96.8%,98.6%,106%,104%,101%,96.1%,104%,96.2%,104%,99.1%,96.1%,94%
C[C@H]1C[C@@H]2[C@H]([C@@H](O)C[C@@]3(C)[C@H]2CC[C@]3(O)C(=O)CO)[C@@]2(C)C=CC(=O)C=C12 [Methylprednisolone] (1 nM),104%,99.1%,103%,100%,110%,103%,109%,120%,103%,113%,100%,94.5%,108%,99.6%,99.5%,99.3%,103%,116%,105%
C[C@H]1C[C@@H]2[C@H]([C@@H](O)C[C@@]3(C)[C@H]2CC[C@]3(O)C(=O)CO)[C@@]2(C)C=CC(=O)C=C12 [Methylprednisolone] (10 nM),99.8%,104%,112%,116%,127%,113%,109%,111%,96.2%,93.7%,101%,112%,108%,96.8%,110%,101%,103%,108%,135%
O=C(O)C(=O)O.[NH-][C@@H]1CCCC[C@H]1[NH-].[Pt+2] [Oxaliplatin] (1 nM),86.7%,93.2%,91.2%,110%,91.9%,96.6%,90%,91.3%,98.5%,95%,103%,91.3%,91.7%,98.2%,106%,93.9%,98.9%,86.8%,94.2%
O=C(O)C(=O)O.[NH-][C@@H]1CCCC[C@H]1[NH-].[Pt+2] [Oxaliplatin] (10 nM),97.2%,94%,92%,124%,101%,91%,98.4%,83.7%,101%,95%,96.8%,98.7%,90.9%,99.8%,104%,94.8%,101%,81.9%,92.7%
C=CCc1cccc(/C=N/NC(=O)CN2CCN(Cc3ccccc3)CC2)c1O [PAC-1] (1 nM),109%,101%,102%,129%,97.7%,113%,109%,96%,96.8%,101%,105%,99.7%,100%,105%,97.5%,106%,104%,103%,103%
